# Entries after “also recorded” stand apart in the source; their conditions may differ. Read-outs that look alike come from different tables or passages of the source.
# Tests used:
# PDE4A1 = target: T1, PDE4A1 (Mus musculus, UniProt O89084); assay: 5FOA growth assay (high throughput screen, ED50) in fission yeast strain expressing PDE4A1; assay type: cell-based; settings: for Composite Z score, PDE4A1: high throughput 5FOA growth screen, greater than 8.53 = statistically-significant inhibitor; for EC50: OD600 0.6
# T1 construct: targets used in the assays are full-length proteins (as opposed to simply the catalytic domain); expressed in transfected cells; host or cells: Schizosaccharomyces pombe, PDE gene integrated in place of cgs2
# T1 sequence (O89084 1-610 isoform O89084-2): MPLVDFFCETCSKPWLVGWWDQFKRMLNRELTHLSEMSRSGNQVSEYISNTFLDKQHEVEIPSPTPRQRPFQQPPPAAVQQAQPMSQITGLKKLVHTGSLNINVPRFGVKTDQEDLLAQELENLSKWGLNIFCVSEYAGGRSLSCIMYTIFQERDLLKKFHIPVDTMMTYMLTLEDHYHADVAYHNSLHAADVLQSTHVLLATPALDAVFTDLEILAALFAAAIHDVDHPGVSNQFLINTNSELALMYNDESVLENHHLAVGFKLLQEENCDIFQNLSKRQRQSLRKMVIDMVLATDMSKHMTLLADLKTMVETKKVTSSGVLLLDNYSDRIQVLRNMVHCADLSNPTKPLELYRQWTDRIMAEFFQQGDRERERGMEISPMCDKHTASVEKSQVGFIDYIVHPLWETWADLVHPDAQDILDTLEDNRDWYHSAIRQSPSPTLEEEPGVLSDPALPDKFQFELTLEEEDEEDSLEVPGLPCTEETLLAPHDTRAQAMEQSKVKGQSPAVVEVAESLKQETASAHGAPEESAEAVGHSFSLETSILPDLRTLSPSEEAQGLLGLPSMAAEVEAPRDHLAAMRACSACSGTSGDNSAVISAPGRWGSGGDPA
# Outline: (§1)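 Fission yeast strains carrying mouse PDE4A1 or PDE4B3 and an fbp1-ura4 reporter were pregrown in EMM with 0.5–2.5 mM cAMP, then seeded at 0.5–4×10^5 cells/ml in 5FOA medium with compound. Growth was read as OD600 after 48 h at 30° C; composite Z scores were derived.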
# PDE4B3 = target: T2, PDE4B3 (Mus musculus, UniProt Q8VBU5); assay: 5FOA growth assay in fission yeast strain expressing PDE4B3; assay type: cell-based, Murine; settings: for Composite Z score, PDE4B3: high throughput 5FOA growth screen
# T2 construct: targets used in the assays are full-length proteins (as opposed to simply the catalytic domain); expressed in transfected cells; host or cells: Schizosaccharomyces pombe, PDE gene integrated in place of cgs2
# T2 sequence (Q8VBU5 1-721): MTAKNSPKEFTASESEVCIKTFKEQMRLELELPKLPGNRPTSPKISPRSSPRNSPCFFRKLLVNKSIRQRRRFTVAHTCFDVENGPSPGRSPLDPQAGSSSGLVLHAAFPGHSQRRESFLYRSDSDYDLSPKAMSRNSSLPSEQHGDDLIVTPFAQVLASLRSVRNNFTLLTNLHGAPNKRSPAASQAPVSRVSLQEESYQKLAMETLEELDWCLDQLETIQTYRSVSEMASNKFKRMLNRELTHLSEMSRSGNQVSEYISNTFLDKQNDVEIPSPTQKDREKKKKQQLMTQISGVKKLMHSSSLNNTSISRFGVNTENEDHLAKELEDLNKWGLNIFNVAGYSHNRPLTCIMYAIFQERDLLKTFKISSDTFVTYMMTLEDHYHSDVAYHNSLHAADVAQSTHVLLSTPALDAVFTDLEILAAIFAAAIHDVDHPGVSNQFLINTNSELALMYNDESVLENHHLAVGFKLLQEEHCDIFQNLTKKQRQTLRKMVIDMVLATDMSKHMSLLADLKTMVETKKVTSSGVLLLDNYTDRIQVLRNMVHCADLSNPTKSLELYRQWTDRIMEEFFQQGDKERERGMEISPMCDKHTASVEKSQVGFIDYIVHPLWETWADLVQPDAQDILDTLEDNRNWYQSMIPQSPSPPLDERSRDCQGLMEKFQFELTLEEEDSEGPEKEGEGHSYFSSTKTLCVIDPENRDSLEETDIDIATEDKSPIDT
# Outline: as §1
# PDE4D3 = target: T3, PDE4D3 (Homo sapiens, UniProt Q08499); assay: 5FOA growth assay in fission yeast strain expressing PDE4D3; assay type: cell-based; settings: for EC50: OD600 0.6, read-out: ED50 for 5FOA growth assays, PDE4D3
# T3 construct: targets used in the assays are full-length proteins (as opposed to simply the catalytic domain); expressed in transfected cells; host or cells: Schizosaccharomyces pombe, PDE gene integrated in place of cgs2
# Procedure: Cells were pregrown in EMM medium [MP Biomedicals (Solon, Ohio), 3% glucose, filter-sterilized to avoid carmelization, which would introduce variability into the optical density of the medium] containing from 0 mM to 2.5 mM cAMP (or either 0.5 mM or 1.0 mM cGMP). This was to repress expression of the fbp1-ura4 reporter prior to exposure of cells to 5FOA medium. Cells were grown at 30° C. to exponential phase (approximately 10^7 cells/ml). […] Starting cell concentrations ranged from 0.5×10^5 to 4×10^5 cells/ml depending on the screening strain. […] Other positive control dishes contained 5 mM cAMP in the 5FOA medium for PDEs that lack appropriate control compounds. Cultures were grown for 48 hours at 30° C., sealed in an airtight container with moist paper towels to prevent evaporation. Optical densities (OD600) of cultures were measured using a microplate reader. Bioinformatic analysis of the results to determine composite Z scores was performed as previously described (1, 3).
# PDE4D2 = target: T4, PDE4D2 (Homo sapiens, UniProt Q08499); assay: cAMP response in yeast strain expressing PDE4D2; assay type: cell-based
# T4 construct: targets used in the assays are full-length proteins (as opposed to simply the catalytic domain); expressed in transfected cells; host or cells: Schizosaccharomyces pombe
# [1] = system: PDE4A, PDE4B, PDE4D, PDE7A, PDE7B, PDE8A, PDE3A; assay: Summary of PDE inhibitor profile; design: key to PDE inhibitor profile (Table 17): (1): Strong PDE4A, PDE4B inhibitor; (2): Strong PDE4A inhibitor; (3): Strong PDE4B, moderate PDE4A inhibitor; (4): Moderate PDE4A, PDE4B inhibitor; (5): Moderate PDE4B inhibitor; key to inhibitor class, Table 15: (1): Strong PDE4A5 inhibitor; (2): Strong PDE4A, 4B inhibitor; Moderate PDE4D inhibitor; (3): Strong PDE4A. 4B inhibitor; (4): Strong PDE4A, 4B, PDE7A inhibitor: Weak PDE4D inhibitor; key to inhibitor class, Table 16: (1): Weak PDE7A inhibitor; (2): Strong PDE7A inhibitor; (3): Lillte/no activity under conditions used; (4): Weak PDE4A inhibitor; settings: for PDE inhibitor profile (Table 17): overall classification, Table 17 footnotes
# U937 cells = assay: TNF alpha release by LPS-treated U937 cells; assay type: cell-based; settings: for TNF alpha, % vehicle control: 10 uM cmpd, 0 uM BC30
# [2] = value marked (m), read-out: ED50 for 5FOA growth assays, PDE4A1 (m)
# T4 sequence (Q08499 303-809): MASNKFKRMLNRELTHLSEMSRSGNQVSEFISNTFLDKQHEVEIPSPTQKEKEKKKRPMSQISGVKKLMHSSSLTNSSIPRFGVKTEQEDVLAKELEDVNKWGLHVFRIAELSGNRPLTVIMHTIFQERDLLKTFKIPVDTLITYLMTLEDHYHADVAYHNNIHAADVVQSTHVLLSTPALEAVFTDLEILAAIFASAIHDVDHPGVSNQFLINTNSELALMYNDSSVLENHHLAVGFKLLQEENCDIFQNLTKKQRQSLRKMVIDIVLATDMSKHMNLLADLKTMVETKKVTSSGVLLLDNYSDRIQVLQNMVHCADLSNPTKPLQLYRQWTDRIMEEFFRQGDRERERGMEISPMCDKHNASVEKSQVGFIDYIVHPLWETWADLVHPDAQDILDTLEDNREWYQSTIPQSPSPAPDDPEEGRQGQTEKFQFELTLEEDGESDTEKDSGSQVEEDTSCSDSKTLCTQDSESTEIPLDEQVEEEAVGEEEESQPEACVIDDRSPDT
# T3 sequence (Q08499 1-673 isoform Q08499-2): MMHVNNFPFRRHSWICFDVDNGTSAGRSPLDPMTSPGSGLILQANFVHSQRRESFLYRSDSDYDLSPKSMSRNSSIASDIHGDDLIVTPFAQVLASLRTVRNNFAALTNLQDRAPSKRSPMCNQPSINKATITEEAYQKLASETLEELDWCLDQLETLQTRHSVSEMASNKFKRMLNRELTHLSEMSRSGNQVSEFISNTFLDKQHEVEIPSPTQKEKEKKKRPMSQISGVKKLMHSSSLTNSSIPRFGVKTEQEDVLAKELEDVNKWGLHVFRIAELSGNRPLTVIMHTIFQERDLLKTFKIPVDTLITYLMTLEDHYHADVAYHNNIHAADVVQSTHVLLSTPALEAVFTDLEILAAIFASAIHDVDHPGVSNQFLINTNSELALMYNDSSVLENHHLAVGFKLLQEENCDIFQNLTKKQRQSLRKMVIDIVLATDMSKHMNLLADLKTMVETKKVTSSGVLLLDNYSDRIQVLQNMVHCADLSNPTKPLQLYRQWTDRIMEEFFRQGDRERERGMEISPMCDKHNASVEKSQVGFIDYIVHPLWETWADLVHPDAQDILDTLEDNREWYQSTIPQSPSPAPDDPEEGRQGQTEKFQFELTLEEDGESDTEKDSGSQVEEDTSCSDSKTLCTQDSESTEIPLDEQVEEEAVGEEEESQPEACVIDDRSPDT
structure (smiles),measurement,setting,value
COC(=O)C1=C(C)N(C2CCCCC2)C(=O)/C1=C\c1cccs1 [Compound 22],"2 Assay (2 uM), 4A1",PDE4A1,27.01
same,"2 Assay (2 uM), 4B3",PDE4B3,37.54
same,1 Assay (20 uM) 4B3,PDE4B3,70.26
same,"2 Assay (2 uM), 4D3",PDE4D3,42.32
same,"cAMP Response (% rolipram), 4D2",PDE4D2,ND ND ND 34.00 ND % rolipram
same,"inhibitor class, Table 15",[1],22 (4)
Cc1ccc2c(c1)c1nc3ccccc3nc1n2C(C)C [Compound 41],1 Assay (20 uM) 4A1,PDE4A1; PDE 4A1,106.90
same,1 Assay (20 uM) 4B3,PDE4B3; PDE 4B3,200.51
same,PDE inhibitor profile (Table 17),[1],41 (1)
"C=CCn1c2ccc(Br)cc2c2nc3ccccc3nc21 [2017, C18]",1 Assay (20 uM) 4A1,PDE4A1; PDE 4A1,49.17 ND ND ND ND
same,1 Assay (20 uM) 4B3,PDE4B3; PDE 4B3,56.91 ND ND ND ND
same,PDE inhibitor profile (Table 17),[1],"2017, C18 (4)"
COC(=O)C1=C(C)N(c2ccccc2Cl)C(=O)/C1=C\c1cccs1 [Compound 27],"2 Assay (2 uM), 4A1",PDE4A1,17.41
same,"2 Assay (2 uM), 4B3",PDE4B3,22.05
same,1 Assay (20 uM) 4B3,PDE4B3,−0.26
same,"2 Assay (2 uM), 4D3",PDE4D3,0.00
same,"cAMP Response (% rolipram), 4D2",PDE4D2,ND ND ND 11.00 ND % rolipram
same,"TNF alpha, % vehicle control",U937 cells; after 3 h.,75.3%
same,"TNF alpha, % vehicle control",U937 cells; after 20 h.,78.3%
same,"inhibitor class, Table 15",[1],27 (3)
Cc1c(C(=O)Nc2ccc(F)cc2F)sc2ncnc(N3CCC(C)CC3)c12 [BC58],"Composite Z score, PDE4A1",PDE4A1,34.335
same,"Composite Z score, PDE4B3",PDE4B3,78.927
same,"TNF alpha reduction, conclusion in words",U937 cells,good PDE4 inhibitor activity
same,"PDE inhibitor profile, in words",[1],effective PDE4A/4B inhibitor that exhibits limited/essentially no inhibition of PDE4D; also recorded: PDE4A/4B-specific inhibitor
COc1ccc2c(c1)[C@@]1(C)CCC[C@](C)(CO)C1CC2 (some centres unmarked) [Compound 2067M03],"2 Assay (2 uM), 4A1",PDE4A1; PDE 4A1,6.63
same,1 Assay (20 uM) 4A1,PDE4A1; PDE 4A1,11567
same,"2 Assay (2 uM), 4B3",PDE4B3; PDE 4B3,19.00
same,1 Assay (20 uM) 4B3,PDE4B3; PDE 4B3,13.34
same,"2 Assay (2 uM), 4D3",PDE4D3; PDE 4D3,ND 1.24 ND ND ND
Cc1sc2ncnc(Nc3ccccc3)c2c1C [BC64],"Composite Z score, PDE4A1",PDE4A1,24.925
same,EC50,PDE4A1; [2],20 µM
same,"Composite Z score, PDE4B3",PDE4B3,0.3426
same,EC50,PDE4D3,> 200 µM
same,"PDE inhibitor profile, in words",[1],moderate PDE7 inhibitor
"CCc1ccc2c(c1)c1nc3ccccc3nc1n2CC [2015, P06]",1 Assay (20 uM) 4A1,PDE4A1; PDE 4A1,23.52 ND ND ND ND
same,1 Assay (20 uM) 4B3,PDE4B3; PDE 4B3,0.13 ND ND ND ND
same,PDE inhibitor profile (Table 17),[1],"2015, P06 (4)"
N#Cc1sc2sc(C#N)c(-c3ccco3)c2c1N [Compound 30],"2 Assay (2 uM), 4A1",PDE4A1,4.56
same,"2 Assay (2 uM), 4B3",PDE4B3,5.21
same,1 Assay (20 uM) 4B3,PDE4B3,4.67
same,"cAMP Response, 4D2","PDE4D2; Table 16, unit not given",ND ND ND 7.5 ND
same,TNF,U937 cells; 3 HOURS,3317 pg/mL
same,"TNF, % EtOH cntrl",U937 cells; 3 HOURS,68.7%
same,TNF,U937 cells; 20 HOURS,7481 pg/mL
same,"TNF, % EtOH cntrl",U937 cells; 20 HOURS,54.7%
same,"inhibitor class, Table 16",[1],30 KM03472 (2)
Cc1ccc2c(c1)CCC1CC(=O)CC[C@]21C (some centres unmarked) [Compound 2158J12],"2 Assay (2 uM), 4A1",PDE4A1; PDE 4A1,2.18
same,1 Assay (20 uM) 4A1,PDE4A1; PDE 4A1,81.97
same,"2 Assay (2 uM), 4B3",PDE4B3; PDE 4B3,8.18
same,1 Assay (20 uM) 4B3,PDE4B3; PDE 4B3,37.13
same,"2 Assay (2 uM), 4D3",PDE4D3; PDE 4D3,40.17
same,1 Assay (20 uM) 4D3,"PDE4D3; 20 uM, PDE 4D3",14.84
CCN(CC)c1ncnc2sc3c(c12)CCCC3 [BC44],"Composite Z score, PDE4A1",PDE4A1,22.267
same,"Composite Z score, PDE4B3",PDE4B3,85.067
same,EC50,PDE4D3,3.3 µM
same,"PDE inhibitor profile, in words",[1],"very good PDE4 and PDE7 inhibitor, with low PDE4D inhibition"
CCC1CCc2c(sc3ncnc(N4CCOCC4)c23)C1 (centres unmarked) [BC33],"Composite Z score, PDE4A1",PDE4A1,50.594
same,EC50,PDE4A1; [2],23 µM
same,EC50,"PDE4A1; value marked (r), read-out: ED50 for 5FOA growth assays, PDE4A1 (r)",28 µM
same,"Composite Z score, PDE4B3",PDE4B3,42.416
same,EC50,PDE4D3,33 µM
same,"PDE inhibitor profile, in words",[1],PDE4 inhibitor. It also shows some activity on PDE4D3 (but not 4D2)
"C=Cn1c2ccccc2c2nc3ccccc3nc21 [2033, H06]",1 Assay (20 uM) 4A1,PDE4A1; PDE 4A1,29.62 ND ND ND ND
same,1 Assay (20 uM) 4B3,PDE4B3; PDE 4B3,103.11 ND ND ND ND
same,PDE inhibitor profile (Table 17),[1],"2033, H06 (4)"
"CCCCn1c2ccccc2c2nc3ccccc3nc21 [2013, I20]",1 Assay (20 uM) 4A1,PDE4A1; PDE 4A1,80.55 ND ND ND ND
same,1 Assay (20 uM) 4B3,PDE4B3; PDE 4B3,0.29 ND ND ND ND
same,PDE inhibitor profile (Table 17),[1],"2013, I20 (1)"
